According to ChEMBL document CHEMBL1132665, “Casein kinase II inhibitors isolated from two Brazilian plants Hymenaea parvifolia and Wulffia baccata” (Bioorg Med Chem Lett, 1999):

Key:
[1] = biological target: T1, Casein kinase II (Homo sapiens) (UniProt P67870+P68400+P19784); assay: Inhibition of CK-II-mediated 60S acidic ribosomal P protein activity at 10 uM; type: functional
[2] = biological target: T1, Casein kinase II (Homo sapiens); assay: In vitro inhibitory activity against casein kinase II was determined; type: protein-complex assay

**Q.** Which Activity [1] does the source give for `C[C@@H]1CC[C@]2(C(=O)O)CC[C@]3(C)C(=CC[C@@H]4[C@]56CC[C@@](O)(OC5)C(C)(C)[C@@H]6CC[C@]43C)C2[C@H]1C` (stereo partly specified) here?
**A.** Dose-dependent effect

**Q.** With `C[C@H]1OC(O[C@@H]2C(=O)c3c(O)cc(O)cc3O[C@H]2c2ccc(O)c(O)c2)[C@H](O)[C@H](O)[C@@H]1O` (stereo partly specified) as the compound, how does the ID50 [2] read?
**A.** 7 µM

**Q.** And the Activity [1]?
**A.** Dose-dependent effect

**Q.** Which ID50 [2] does the source give for `C[C@H]1OC(O[C@H]2C(=O)c3c(O)cc(O)cc3O[C@@H]2c2ccc(O)c(O)c2)[C@H](O)[C@H](O)[C@@H]1O` (stereo partly specified) here?
**A.** 9 µM

**Q.** And the Activity [1]?
**A.** Dose-dependent effect

**Q.** Which Activity [1] does the source give for `C/C=C(/C)C(=O)O[C@@H]1CC(C)(C)CC2C3=CC[C@@H]4[C@]56CC[C@@](O)(OC5)C(C)(C)[C@@H]6CC[C@@]4(C)[C@]3(C)CC[C@]21C(=O)O` (stereo partly specified) here?
**A.** Dose-dependent effect
